Article PMC12735688, “Discovery and Activity Evaluation of Novel Dibenzoxazepinone Derivatives as Glycogen Phosphorylase Inhibitors” (Molecules, 2025)
Counter-ions that a name gives are not always drawn. Like-named read-outs stand apart in the source and are kept apart here.

Key:
[1] = biological target: T1, rabbit muscle glycogen phosphorylase a (RMGPa) (Oryctolagus cuniculus, UniProt P00489); design: method as in PMID 33906369; details: previously reported parent compound; read-out: IC50 (RMGPa inhibition) of parent compound; cited from earlier work
T1 construct: purchased
T1 sequence (P00489 2-843 limits assumed): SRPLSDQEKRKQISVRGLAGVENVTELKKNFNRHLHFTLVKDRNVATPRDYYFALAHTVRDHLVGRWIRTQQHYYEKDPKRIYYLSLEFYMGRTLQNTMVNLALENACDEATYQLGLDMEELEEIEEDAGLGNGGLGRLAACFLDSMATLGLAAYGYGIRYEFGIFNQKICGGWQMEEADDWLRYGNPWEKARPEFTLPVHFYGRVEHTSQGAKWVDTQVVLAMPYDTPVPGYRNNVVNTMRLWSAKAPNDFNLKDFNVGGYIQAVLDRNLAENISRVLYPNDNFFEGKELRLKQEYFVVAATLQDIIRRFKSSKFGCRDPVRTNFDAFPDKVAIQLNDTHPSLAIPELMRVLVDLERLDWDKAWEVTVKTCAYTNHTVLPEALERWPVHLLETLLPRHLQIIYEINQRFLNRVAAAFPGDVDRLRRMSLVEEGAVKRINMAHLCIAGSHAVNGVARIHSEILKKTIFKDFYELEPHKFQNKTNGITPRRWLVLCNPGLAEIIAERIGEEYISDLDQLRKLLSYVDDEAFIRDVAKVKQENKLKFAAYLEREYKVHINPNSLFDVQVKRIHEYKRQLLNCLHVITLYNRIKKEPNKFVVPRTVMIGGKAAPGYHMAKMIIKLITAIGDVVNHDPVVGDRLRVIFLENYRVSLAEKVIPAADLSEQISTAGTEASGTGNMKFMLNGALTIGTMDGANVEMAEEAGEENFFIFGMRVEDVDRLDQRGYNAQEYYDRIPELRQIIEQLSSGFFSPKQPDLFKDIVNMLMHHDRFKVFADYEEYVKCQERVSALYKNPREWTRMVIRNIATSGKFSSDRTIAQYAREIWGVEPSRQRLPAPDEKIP

[2] = biological target: T1, rabbit muscle glycogen phosphorylase a (RMGPa); assay: RMGPa enzyme inhibition assay (phosphate release, malachite green); type: biochemical; details: mean ± S.D. of three determinations; NI means no inhibition
Protocol: The synthesized compounds were evaluated in an enzyme inhibition assay against rabbit muscle glycogen phosphorylase a (RMGPa), a commercially available enzyme that shares considerable sequence similarity with human liver GPa. As described previously, the activity of RMGPa was measured by detecting the release of phosphate from glucose-1-phosphate in the direction of glycogen synthesis. PSN-357, a GP inhibitor in clinical Phase II, was used as positive control.
The inhibitory activity of the test compounds against RMGPa was evaluated using a microplate reader (Bio-Rad Laboratories, Berkeley, CA, USA), based on the release of inorganic phosphate during glycogenolysis. First, the test compounds were dissolved in DMSO and diluted to various concentrations for IC50 determination. A 100 μL aliquot of buffer, containing 50 mM Hepes (pH = 7.2), 100 mM potassium chloride (KCl), 2.5 mM magnesium chloride (MgCl2), 0.5 mM glucose-1-phosphate, 1 mg/mL glycogen, and the test compound solution, was added to a 96-well Costar microplate (Corning Inc., New York, NY, USA). The reaction mixture was incubated at 22 °C for 25 min, after which 150 μL of solution containing 10 mg/mL ammonium molybdate and 0.38 mg/mL malachite green was added to stop the reaction. The absorbance of phosphate was measured at 620 nm. IC50 values were determined by fitting the inhibition data to a dose–response curve using a logistic derivative equation.

[3] = system: hyperglycemic mice induced by adrenaline; assay: Acute hypoglycemic experiment in adrenaline-induced hyperglycemic mice; type: in vivo, C57BL/6J mice; details: 400 mg/kg single oral dose, about 2 h after administration; model group 8.91 ± 0.69; p < 0.01; mean ± SEM
Protocol: First, its ability was investigated by oral administration with one dose of 0.5% CMC-NA (model group) or compound Id at different concentrations (12.5, 25 and 50 mg/kg) for treatment. Metformin (400 mg/kg) was selected as a positive control.
The animal experiments were conducted following the method described in reference. Male C57BL/6J mice (6–8 weeks old, 18–20 g) were obtained from Beijing Huafukang Biotechnology Co., Ltd. (Beijing, China), maintained under standard conditions (food/water ad libitum), and acclimatized for 1 week. After acclimatization, baseline blood glucose was measured via tail vein sampling. Subsequently, mice were randomized into 6 groups (10/group) by blood glucose/body weight, with no significant differences in initial blood glucose (mean ± SEM). Post-grouping, daily oral 0.5% CMC-Na (as vehicle) was given. On the night before the experimental day, mice were fasted overnight with free access to water. On the experimental day, mice were orally administered Compound Id (50, 25, 12.5 mg/kg), metformin (400 mg/kg, as positive control), or 0.5% CMC-Na, followed by subcutaneous 0.2 mg/kg adrenaline to induce hyperglycemia. Finally, blood glucose was measured/recorded at 0, 30, 60, 90, and 120 min post-administration via JPS-5 meter.

Structure (SMILES) | IC50 [2] | other results
O=C1CCOc2ccc(NC(=O)c3cc4cc(Cl)ccc4[nH]3)cc2N1 [Compound 1] | – | IC50 [1]: 250 ± 50 nM
O=C(Nc1ccc2c(c1)NC(=O)c1ccc(C(F)(F)F)cc1O2)c1cc2cc(O)ccc2[nH]1 [IIb] | 723 ± 82 nM | –
COc1ccc2[nH]c(C(=O)Nc3ccc4c(c3)NC(=O)c3ccc(C(F)(F)F)cc3O4)cc2c1 [IIc] | 840 ± 50 nM | –
COc1cnc2[nH]c(C(=O)Nc3ccc4c(c3)NC(=O)c3ccc(C(F)(F)F)cc3O4)cc2c1 [IId] | 1790 ± 104 nM | –
Cc1ccc2[nH]c(C(=O)Nc3ccc4c(c3)NC(=O)c3ccc(C(F)(F)F)cc3O4)cc2c1 [IIf] | 338 ± 55 nM | –
CCCc1cc(OC)c2c(c1)C(=O)Nc1cc(NC(=O)c3cc4cc(Cl)ccc4[nH]3)ccc1O2 [Ie, 5-chloro-N-(3-methoxy-11-oxo-5-propyl-10,11-dihydrodibenzo[b,f][1,4]oxazepin-8-yl)-1H-indole-2-carboxamide] | 2180 ± 156 nM | –
CN(C)C(=N)N=C(N)N [Metformin, Metformin hydrochloride, reference compound] | – | blood glucose [3]: 6.57 ± 0.71 mmol/L
